# In patent publication US5811073A, “Method for radioisotopic detection and localization of inflammation in a host” (President and Fellows of Harvard College, priority 1995, dated 1998):
# Columns and labels:
# [1] = system: bacterial (E. coli) inflammatory lesions (pus capsule); experiment: Gamma camera imaging of rats with bacterial infection; type: in vivo; set-up: key to Figure of Merit (FOM), equation (1): FOM=(At-Ab)^2/(At+Ab), from total counts target vs background; conditions: for Figure of Merit (FOM), equation (1): 0.2 mCi ^67 Ga-citrate (n=3); for Figure of Merit (FOM), equation (1) / Pus Capsule to Contralateral Tissue (T/B) Ratio, gamma camera imaging: 1.5 mCi/rat ^123 IUdR (n=4); for Figure of Merit (FOM), equation (1) / Pus Capsule to Contralateral Tissue (T/B) Ratio, gamma camera imaging / Figure of Merit (FOM), equation (2): mean ± SD; for Pus Capsule to Contralateral Tissue (T/B) Ratio, gamma camera imaging: 0.2 mCi/rat ^67 Ga (n=3); for Figure of Merit (FOM), equation (2): n=3 (^67 Ga), n=4 (^123 IUdR)
# Description: (§1) A frozen sample of E. coli bacteria (clinical isolate; ATCC 9339) was used to inoculate a 10 ml trypticase soy medium (trypticase soy broth, BBL #11768, 30 g/L water), and the tube was incubated overnight at […] This culture was used to grow single colonies by streaking the sample on agar plates (100 mm petri dishes each containing 15 ml of […] in the same medium). Good colonies develop in 10-11 hours at 37° C. The agar plates containing bacterial colonies were stored upside down at 4° C. A single colony of bacteria from the agar plate was used to inoculate 10 ml trypticase soy medium, and the tube was incubated overnight at 37° C. with vigorous shaking. Two ml of this overnight culture was transferred into 100 ml trypticase soy medium and the sample incubated at 37° C. with vigorous shaking until the culture reached an OD600 of ~0.8 (in about 2 hrs). This 100 ml culture contained ~6.4×10^10 bacterial cells (1 OD600 =8×10^8 cells/ml).
# (§2) The culture was centrifuged at 5500 rpm for 5 min at 4° C. in a Sorvall SS-34 rotor, the bacterial pellet resuspended in saline to give ~2.5×10^9 bacteria/ml, and 0.1 ml of resuspended cells injected into the left thigh muscle of each anesthetized rat.
# (§3) A further set of rats prepared as described in Examples 1 and 2 received intravenous injections of either ^123 IUdR (at a dose of about 1.5 mCi/rat) or gallium-67 citrate (at a dose of about 0.2 mCi/rat). After 1, 3 and 24 hours, rats from each group were anesthetized and imaged using a gamma camera (the General Electric STARCAM™ 400 fitted with parallel hole medium collimator). Anterior images were obtained 10^6 counts/frame except for the 24 h period for ^123 IUdR where a 15 min scan was carried out. A 20% window was present over the 159 keV photopeaks of ^67 Ga (93 kev, 184 keV, and 298 keV).
# (§4) Regions of interest (ROI) were drawn over the inflamed areas (3×4 pixel) and over the contralateral area in each rat. Total counts in these regions were used to calculate Target to Background (T/B) ratios and to calculate Figure of Merit (FOM; statistical significance) values using either of the following equations:
# (§5) FOM=(At -Ab)^2 /(At +Ab) (1)
# (§6) At =counts in ROI (3×4) over pus capsule; and
# (§7) Ab =counts in ROI (3×4) over contralateral muscle.
# (§8) Equation (1) is derived from the Report of the National Council on Radiation Protection and Measurements, Nuclear Medicine, "Factors Influencing the Choice and Use of Radionuclides in Diagnosis and Therapy", Report No. 70, p.79 (NRCP, Bethesda, Md., 1982). Equation (2) is derived from Rubin et al., J. Nucl. Med. 30:385-389, 1989. For purposes of reference, the disclosures of each of these publications is incorporated herein.
# [2] = system: sterile inflammatory lesions (pus capsule; turpentine oil); experiment: Gamma camera imaging of rats with sterile inflammation; type: in vivo, Male Sprague-Dawley rats; conditions: for Figure of Merit (FOM), equation (1): 0.2 mCi ^67 Ga-citrate; for Figure of Merit (FOM), equation (1) / Pus Capsule to Contralateral Tissue (T/B) Ratio, gamma camera imaging: 1.5 mCi/rat ^123 IUdR; for Figure of Merit (FOM), equation (1) / Pus Capsule to Contralateral Tissue (T/B) Ratio, gamma camera imaging / Figure of Merit (FOM), equation (2): n=4, mean ± SD; for Pus Capsule to Contralateral Tissue (T/B) Ratio, gamma camera imaging: 0.2 mCi/rat ^67 Ga
# Description: Male Sprague-Dawley rats weighing between 150-200g were obtained from the Charles River Breeding Laboratories in Burlington, Mass. […] To anaesthetize the animals during testing, ketamine (40 mg/kg) and xylazine (10 mg/kg) were administered intra peritoneally (1.0 ml/kg) prior to surgical procedures. For the imaging studies, each animal received 1.5 ml/kg of a mixture of ketamine (75 mg/kg), xylazine (39 mg/kg) and acepromazine (0.75 mg/kg).
# To induce a localized sterile inflammation, 0.1 ml of turpentine oil (Rectified Turpentine Oil for medical use, Gentry Corporation, Fair Lawn, N.J.) was injected into the left thigh muscle of anesthetized rats.
# as §3, §4, §5, §6, §7, §8
# [3] = system: sterile inflammatory lesions (pus capsule; turpentine oil); experiment: Biodistribution (pus capsule to contralateral tissue ratio) in rats with sterile inflammation
# [4] = system: bacterial (E. coli) inflammatory lesions (pus capsule); experiment: Biodistribution (pus capsule to contralateral tissue ratio) in rats with bacterial infection; type: in vivo
# Description: as §1, §2
# No-carrier added radioiodinated deoxyuridine (^125 IUdR) was synthesized by the method described in the above disclosure. Commercially available gallium-67 citrate of known biodistribution characteristics was obtained, for comparison to ^125 IUdR. 24 hrs after each rat described in Example 2 received an intramuscular injection of E. coli or after each rat described in Example 1 received an intramuscular injection of turpentine oil (to permit comparison of activity in a bacterial inflammation lesions to activity in a sterile inflammation lesions) in the left rear thigh, each rat received either ^125 IUdR (about 5 μCi/rat) or gallium-67 citrate (about 10 μCi/rat) suspended in 0.1 ml saline, by injection into the tail vein.
# At one, three and 24 hrs after ^125 IUdR or gallium-67 citrate administration, the animals from each group were anesthetized, blood collected via cardiac puncture, urine aspirated from the urinary bladder, and the rats humanely sacrificed. The biodistribution of each radiopharmaceutical (measured as a function of the % injected dose/gram body weight) was then determined in various normal tissues and organs, as well as the left and right legs, the pus capsule formed within the leg and in contralateral muscle tissues (i.e., background tissues unaffected by inflammation) of equivalent weight.
# To determine the distribution of each radiopharmaceutical in various tissues of each rat (i.e., the "biodistribution" of each radiopharmaceutical), samples of background tissues and organs (blood, lung, liver, spleen, kidney, muscle and intestine), of target tissue (the pus capsule formed in the leg) and of contralateral muscle tissue (background tissue adjacent to target tissue) were obtained from each rat and weighed. Radioactivity in each sample was measured in a well-type gamma counter (from LKB, Wallac Oy, Finland). To correct for radioactive decay and permit calculation of activity in each organ or tissue as a fraction of the injected dosage of radiopharmaceutical, aliquots of the injected doses were counted at the same time that radioactivity in each sample was determined. The results were measured as a function of the percentage of injected dose/gram (% ID/g). For further reference regarding measurements of biodistribution of radiopharmaceuticals, particularly in blood, those of ordinary skill in the art may wish to refer to Baker et al., "The Laboratory Rat" (Acad.Press N.Y., 1980).
# Ab = %ID/g over contralateral muscle
compound,measurement,setting,value
O=c1[nH]c(=O)n([C@H]2C[C@H](O)[C@@H](CO)O2)cc1[123I] [^123 IUdR],detection of the lesion in scintigraphic images (in words),"[1]; 1, 3, and 24 h, i.v.",can clearly detect the lesion
same,"radioscintigraphic detection by FOM, comparison of agents (in words)","[1]; 1 h, 3 hrs, and 24 hrs",superior agent
same,"radioscintigraphic detection by imaging T/B ratio, comparison of agents (in words)","[1]; 1 h, 3 hrs, and 24 hrs",superior to gallium-67
same,"Figure of Merit (FOM), equation (1)","[1]; 1 h, i.v.",1770 ± 598
same,"Pus Capsule to Contralateral Tissue (T/B) Ratio, gamma camera imaging","[1]; 1 h, i.v.",3.72 ± 1.06
same,"Figure of Merit (FOM), equation (2)","[1]; 1 h, i.v.",2.72 ± 0.53
same,"Figure of Merit (FOM), equation (1)","[1]; 3 h, i.v.",1507 ± 775
same,"Pus Capsule to Contralateral Tissue (T/B) Ratio, gamma camera imaging","[1]; 3 h, i.v.",3.53 ± 0.80
same,"Figure of Merit (FOM), equation (2)","[1]; 3 h, i.v.",2.53 ± 0.40
same,"Figure of Merit (FOM), equation (1)","[1]; 24 h, i.v.",214 + 135
same,"Pus Capsule to Contralateral Tissue (T/B) Ratio, gamma camera imaging","[1]; 24 h, i.v.",5.35 ± 2.37
same,"Figure of Merit (FOM), equation (2)","[1]; 24 h, i.v.",4.35 ± 1.19
same,detection of the lesion in scintigraphic images (in words),"[2]; 1, 3, and 24 h, i.v.",can clearly detect the lesion
same,"Figure of Merit (FOM), equation (1)","[2]; 1 h, i.v.",14444 ± 559
same,"Pus Capsule to Contralateral Tissue (T/B) Ratio, gamma camera imaging","[2]; 1 h, i.v.",4.13 ± 1.06
same,"Figure of Merit (FOM), equation (2)","[2]; 1 h, i.v.",3.13 ± 0.53
same,"Figure of Merit (FOM), equation (1)","[2]; 3 h, i.v.",750 + 268
same,"Pus Capsule to Contralateral Tissue (T/B) Ratio, gamma camera imaging","[2]; 3 h, i.v.",3.33 ± 0.92
same,"Figure of Merit (FOM), equation (2)","[2]; 3 h, i.v.",2.33 ± 0.46
same,"efficacy by imaging T/B ratio, comparison of agents (in words)",[2]; 3 hrs,equal
same,"Figure of Merit (FOM), equation (1)","[2]; 24 h, i.v.",69 + 52
same,"Pus Capsule to Contralateral Tissue (T/B) Ratio, gamma camera imaging","[2]; 24 h, i.v.",3.07 ± 0.930
same,"Figure of Merit (FOM), equation (2)","[2]; 24 h, i.v.",2.07 ± 1.46
same,"accumulation in target tissues, rate vs gallium-67 citrate (in words)",[2]; FIGS. 4 and 8 vs FIGS. 3 and 7,more quickly than did gallium-67 citrate
same,"radioscintigraphic detection by FOM, comparison of agents (in words)","[2]; early (i.e., 1 h)",superior agent
same,"radioscintigraphic detection by imaging T/B ratio, comparison of agents (in words)","[2]; early (i.e., 1 h)",superior to gallium-67
O=c1[nH]c(=O)n([C@H]2C[C@H](O)[C@@H](CO)O2)cc1[125I] [^125 IUdR],concentration within lesion (pus capsule) vs contralateral tissues (in words),[3]; sterile inflammation (turpentine oil),to a greater extent than in the contralateral tissues
same,"radioscintigraphic detection by biodistribution T/B ratios, compared with ^67 Ga (in words)","[3]; sterile inflammation, 3 h and 24 h",much better than ^67 Ga
same,"radioscintigraphic detection by biodistribution T/B ratios, compared with ^67 Ga (in words)","[4]; bacterial infection, 1 h, 3 h, and 24 h",better
same,concentration within lesion (pus capsule) vs contralateral tissues (in words),"[4]; rat, in vivo",to a greater extent than in the contralateral tissues
same,time of accumulation in target (inflamed) tissues,"[4]; rat, in vivo",≤ 1 h
